Test results reported in the supplement of paper PMC10307832.

Columns and labels:
Experiment in all cases: relative viability (nuclei count vs DMSO), 5 days (fraction); higher = more cells survive
NCI-H1944 = tested on: NCI-H1944
Procedure, shortened: (§1)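 Dosing by pin tool came one day after lung cancer cell lines were seeded in 1536-well plates, using either one drug or a fixed anchor-drug dose plus five library-drug doses (not always all listed) in √10 steps. After 5 days, nuclei were counted on 4× images. Relative viability is treated-well nuclei count divided by vehicle-well nuclei count, and values are medians of duplicate plates.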

EMC-BAC-2 = tested on: EMC-BAC-2
Procedure, shortened: as §1

HCC-366 = tested on: HCC-366
Procedure, shortened: as §1

A-427 = tested on: A-427
Procedure, shortened: as §1

HCC-15 = tested on: HCC-15
Procedure, shortened: as §1

NCI-H1734 = tested on: NCI-H1734
Procedure, shortened: as §1

HCC-78 = tested on: HCC-78
Procedure, shortened: as §1

NCI-H1993 = tested on: NCI-H1993
Procedure, shortened: as §1

NCI-H1793 = tested on: NCI-H1793
Procedure, shortened: as §1

NCI-H838 = tested on: NCI-H838
Procedure, shortened: as §1

NCI-H2405 = tested on: NCI-H2405
Procedure, shortened: as §1

ChaGo-K-1 = tested on: ChaGo-K-1
Procedure, shortened: as §1

NCI-H23 = tested on: NCI-H23
Procedure, shortened: as §1

HARA = tested on: HARA
Procedure, shortened: as §1

LK-2 = tested on: LK-2
Procedure, shortened: as §1

ABC-1 = tested on: ABC-1
Procedure, shortened: as §1

LC-2-ad = tested on: LC-2-ad
Procedure, shortened: as §1

Clc1ccc(Nc2nnc(Cc3ccncc3)c3ccccc23)cc1 [Vatalanib] + NC(=O)Nc1cc(-c2cccc(F)c2)sc1C(=O)N[C@H]1CCCNC1 [AZD7762] (partner 0.2 µM)
relative viability (NCI-H1944; first compound 0.04 µM): 0.467 | relative viability (NCI-H1944; first compound 0.1265 µM): 0.463 | relative viability (NCI-H1944; first compound 0.4 µM): 0.623 | relative viability (NCI-H1944; first compound 1.265 µM): 0.46 | relative viability (NCI-H1944; first compound 4 µM): 0.468 | relative viability (EMC-BAC-2; first compound 0.04 µM): 1.05 | relative viability (EMC-BAC-2; first compound 0.1265 µM): 0.991 | relative viability (EMC-BAC-2; first compound 0.4 µM): 1.12 | relative viability (EMC-BAC-2; first compound 4 µM): 1.15 | relative viability (HCC-366; first compound 0.04 µM): 0.325 | relative viability (HCC-366; first compound 0.1265 µM): 0.253 | relative viability (HCC-366; first compound 0.4 µM): 0.32 | relative viability (HCC-366; first compound 1.265 µM): 0.194 | relative viability (HCC-366; first compound 4 µM): 0.226 | relative viability (A-427; first compound 0.04 µM): 0.797 | relative viability (A-427; first compound 0.1265 µM): 0.736 | relative viability (A-427; first compound 0.4 µM): 0.761 | relative viability (A-427; first compound 4 µM): 0.64 | relative viability (HCC-15; first compound 0.04 µM): 1.18 | relative viability (HCC-15; first compound 0.1265 µM): 1.23 | relative viability (HCC-15; first compound 0.4 µM): 1.13 | relative viability (HCC-15; first compound 1.265 µM): 1.32 | relative viability (HCC-15; first compound 4 µM): 1.54 | relative viability (NCI-H1734; first compound 0.04 µM): 0.534 | relative viability (NCI-H1734; first compound 0.1265 µM): 0.484 | relative viability (NCI-H1734; first compound 0.4 µM): 0.537 | relative viability (NCI-H1734; first compound 1.265 µM): 0.536 | relative viability (NCI-H1734; first compound 4 µM): 0.528 | relative viability (HCC-78; first compound 0.04 µM): 0.566 | relative viability (HCC-78; first compound 0.1265 µM): 0.633 | relative viability (HCC-78; first compound 0.4 µM): 0.59 | relative viability (HCC-78; first compound 1.265 µM): 0.562 | relative viability (HCC-78; first compound 4 µM): 0.547 | relative viability (NCI-H1993; first compound 0.04 µM): 0.4 | relative viability (NCI-H1993; first compound 0.1265 µM): 0.934 | relative viability (NCI-H1993; first compound 0.4 µM): 0.728 | relative viability (NCI-H1993; first compound 1.265 µM): 0.713 | relative viability (NCI-H1993; first compound 4 µM): 0.737 | relative viability (NCI-H1793; first compound 0.04 µM): 0.518 | relative viability (NCI-H1793; first compound 0.1265 µM): 0.311 | relative viability (NCI-H1793; first compound 0.4 µM): 0.714 | relative viability (NCI-H1793; first compound 1.265 µM): 0.243 | relative viability (NCI-H1793; first compound 4 µM): 0.286 | relative viability (NCI-H838; first compound 0.04 µM): 1.07 | relative viability (NCI-H838; first compound 0.1265 µM): 0.882 | relative viability (NCI-H838; first compound 0.4 µM): 1 | relative viability (NCI-H838; first compound 1.265 µM): 0.867 | relative viability (NCI-H838; first compound 4 µM): 0.87 | relative viability (NCI-H2405; first compound 0.04 µM): 0.799 | relative viability (NCI-H2405; first compound 0.1265 µM): 0.694 | relative viability (NCI-H2405; first compound 0.4 µM): 0.725 | relative viability (NCI-H2405; first compound 4 µM): 0.696 | relative viability (ChaGo-K-1; first compound 0.04 µM): 0.941 | relative viability (ChaGo-K-1; first compound 0.1265 µM): 0.845 | relative viability (ChaGo-K-1; first compound 0.4 µM): 0.88 | relative viability (ChaGo-K-1; first compound 1.265 µM): 0.865 | relative viability (ChaGo-K-1; first compound 4 µM): 0.876 | relative viability (NCI-H23; first compound 0.04 µM): 0.269 | relative viability (NCI-H23; first compound 0.1265 µM): 0.229 | relative viability (NCI-H23; first compound 0.4 µM): 0.228 | relative viability (NCI-H23; first compound 1.265 µM): 0.259 | relative viability (NCI-H23; first compound 4 µM): 0.266 | relative viability (HARA; first compound 0.04 µM): 0.41 | relative viability (HARA; first compound 0.1265 µM): 0.473 | relative viability (HARA; first compound 0.4 µM): 0.173 | relative viability (HARA; first compound 1.265 µM): 0.246 | relative viability (HARA; first compound 4 µM): 0.34 | relative viability (LK-2; first compound 0.04 µM): 0.394 | relative viability (LK-2; first compound 0.1265 µM): 0.412 | relative viability (LK-2; first compound 0.4 µM): 0.496 | relative viability (LK-2; first compound 1.265 µM): 0.353 | relative viability (LK-2; first compound 4 µM): 0.446 | relative viability (ABC-1; first compound 0.04 µM): 0.7 | relative viability (ABC-1; first compound 0.4 µM): 0.744 | relative viability (ABC-1; first compound 1.265 µM): 0.853 | relative viability (ABC-1; first compound 4 µM): 0.719 | relative viability (LC-2-ad; first compound 0.04 µM): 0.897 | relative viability (LC-2-ad; first compound 0.1265 µM): 0.762 | relative viability (LC-2-ad; first compound 0.4 µM): 0.92 | relative viability (LC-2-ad; first compound 1.265 µM): 0.785 | relative viability (LC-2-ad; first compound 4 µM): 0.817

CC(C)Oc1cc(Nc2nc(N[C@@H](C)c3ccc(F)cn3)ncc2Cl)n[nH]1 [AZ23] + NC(=O)Nc1cc(-c2cccc(F)c2)sc1C(=O)N[C@H]1CCCNC1 [AZD7762] (partner 0.2 µM)
relative viability (NCI-H1944; first compound 0.01 µM): 0.413 | relative viability (NCI-H1944; first compound 0.03162 µM): 0.532 | relative viability (NCI-H1944; first compound 0.3162 µM): 0.646 | relative viability (EMC-BAC-2; first compound 0.01 µM): 0.983 | relative viability (EMC-BAC-2; first compound 0.03162 µM): 1.21 | relative viability (EMC-BAC-2; first compound 0.3162 µM): 1.03 | relative viability (HCC-366; first compound 0.01 µM): 0.239 | relative viability (HCC-366; first compound 0.03162 µM): 0.423 | relative viability (HCC-366; first compound 0.3162 µM): 0.496 | relative viability (A-427; first compound 0.01 µM): 0.462 | relative viability (A-427; first compound 0.03162 µM): 0.724 | relative viability (A-427; first compound 0.3162 µM): 1.01 | relative viability (HCC-15; first compound 0.01 µM): 1.43 | relative viability (HCC-15; first compound 0.03162 µM): 1.34 | relative viability (HCC-15; first compound 0.3162 µM): 1.35 | relative viability (NCI-H1734; first compound 0.01 µM): 0.602 | relative viability (NCI-H1734; first compound 0.03162 µM): 0.688 | relative viability (NCI-H1734; first compound 0.3162 µM): 0.795 | relative viability (HCC-78; first compound 0.01 µM): 0.516 | relative viability (HCC-78; first compound 0.03162 µM): 0.697 | relative viability (HCC-78; first compound 0.3162 µM): 0.681 | relative viability (NCI-H1993; first compound 0.01 µM): 0.703 | relative viability (NCI-H1993; first compound 0.03162 µM): 0.749 | relative viability (NCI-H1993; first compound 0.3162 µM): 0.965 | relative viability (NCI-H1793; first compound 0.01 µM): 0.361 | relative viability (NCI-H1793; first compound 0.03162 µM): 0.498 | relative viability (NCI-H1793; first compound 0.3162 µM): 1.3 | relative viability (NCI-H838; first compound 0.01 µM): 0.934 | relative viability (NCI-H838; first compound 0.03162 µM): 1.05 | relative viability (NCI-H838; first compound 0.3162 µM): 0.991 | relative viability (NCI-H2405; first compound 0.01 µM): 0.538 | relative viability (NCI-H2405; first compound 0.03162 µM): 0.864 | relative viability (NCI-H2405; first compound 0.3162 µM): 0.843 | relative viability (ChaGo-K-1; first compound 0.01 µM): 0.93 | relative viability (ChaGo-K-1; first compound 0.03162 µM): 0.811 | relative viability (ChaGo-K-1; first compound 0.3162 µM): 0.959 | relative viability (NCI-H23; first compound 0.03162 µM): 0.204 | relative viability (NCI-H23; first compound 0.3162 µM): 0.309 | relative viability (HARA; first compound 0.01 µM): 0.252 | relative viability (HARA; first compound 0.03162 µM): 0.485 | relative viability (HARA; first compound 0.3162 µM): 0.534 | relative viability (LK-2; first compound 0.03162 µM): 0.472 | relative viability (LK-2; first compound 0.3162 µM): 0.411 | relative viability (ABC-1; first compound 0.03162 µM): 1.23 | relative viability (ABC-1; first compound 0.3162 µM): 0.835 | relative viability (LC-2-ad; first compound 0.01 µM): 1.04 | relative viability (LC-2-ad; first compound 0.03162 µM): 1.05 | relative viability (LC-2-ad; first compound 0.3162 µM): 1.02
